# Source: patent publication US20250319088A1, “DAPRODUSTAT FOR REDUCING FATIGUE IN A SUBJECT WITH ANEMIA ASSOCIATED WITH CHRONIC KIDNEY DISEASE” (GlaxoSmithKline Intellectual Property (No.2) Limited, priority 2021, published 2025)
# Assays:
# [1] = system: patients with type 2 diabetes mellitus, non-dialysis dependent chronic kidney disease and anemia; conditions: at 25 weeks, cited from earlier work
# [2] = system: non-dialysis patient with anaemia associated with chronic kidney disease; assay: SF-36 Vitality Domain score in 28 week randomized double blind placebo controlled clinical study; assay type: in vivo, human; conditions: for Adjusted mean SF-36 Vitality Change from Baseline at Week 28 (SE): 0-100 score; for adjusted mean treatment difference (CI) in SF-36 Vitality: dapro-placebo
# Procedure: (§1) A 28 week randomized double blind placebo controlled clinical study in non-dialysis patient with anaemia associated with chronic kidney disease has been conducted. Participants were assessed for eligibility for inclusion in the study on the basis of the following (non-exhaustive) inclusion and exclusion criteria.
# (§2) Enrolled participants were randomized 1:1 to receive either daprodustat or matching placebo tablets administered once daily.
# (§3) The treatment doses for participants in both treatment arms were titrated based on haemoglobin concentration as assessed by HemoCue. Haemoglobin concentration by HemoCue is assessed on day 1, and at weeks 2, 4, 8, 12, 16, 20, 24 and 28. The available dose steps of daprodustat and placebo were 1 mg, 2 mg, 4 mg, 6, mg, 8 mg, 10 mg, 12 mg and 16 mg. Dose modifications for participants followed the dose adjustment algorithm to achieve and maintain haemoglobin concentration within the target range of 11.0 to 12.0 g/dL outlined in Table 2.
# (§4) The Short form SF-36 questionnaire was completed by participants on day 1 and on weeks 8, 12 and 28, and the CKD-AQ questionnaire was completed by participants on week −2 (i.e. during screening period) and on day 1 and weeks 8, 12 and 28.
# (§5) • Mean change in the SF-36 Vitality Domain score (0-100) between baseline and week 28. This was a principal secondary endpoint and the study was appropriately powered for this endpoint. • Mean change from baseline by domain and overall symptoms score on the CKD-AQ (the study was not powered for this secondary endpoint, so only nominal significance can be assessed).
# (§6) For the endpoints of mean change in haemoglobin and SF-36 Vitality Domain, an analysis of covariance model was used including covariates of baseline level, treatment, and region. The model provided point estimate and two-sided 95% CI for the treatment effect, together with a one-sided p-value. Significance was determined if the one-sided p-value was less than 0.025. The analysis population for the haemoglobin and SF-36 Vitality Domain endpoints was the intent-to-treat population. The analysis population for the Chronic Kidney Disease Anemia Questionnaire Tired/Low Energy/Weak Domain endpoint was the on treatment population and analysis was based on a mixed model repeated measures model fitted from baseline up to Week 28 with factors for treatment, time, region, baseline value, baseline value by time, and treatment by time interactions.
# For the endpoints of mean change in haemoglobin and SF-36 Vitality Domain by subgroup, a similar model to that described above was used, adding covariates for subgroup and subgroup by treatment interaction term. The analysis population for these endpoints was the intent-to-treat population.
# For endpoints of difference in SF-36 Vitality domain response rate, a Cochran-Mantel-Haenszel chi-squared test was used adjusting for treatment, baseline level, and region, to make comparisons between the treatment groups. Significance was determined if the one-sided p-value was less than 0.025. The analysis population for these endpoints was the intent-to-treat population.
# [3] = system: non-dialysis patient with anaemia associated with chronic kidney disease; assay: Haemoglobin concentration change from baseline to evaluation period in 28 week placebo controlled clinical study; assay type: in vivo, human
# Procedure: as §1, §2, §3
# The primary objective of the trial was to compare the efficacy of daprodustat to placebo on mean change in haemoglobin concentration. The primary endpoint was the mean change in haemoglobin concentration between baseline (day 1) and the evaluation period (mean over week 24 to week 28 inclusive).
# For the endpoints of mean change in haemoglobin and SF-36 Vitality Domain, an analysis of covariance model was used including covariates of baseline level, treatment, and region. The model provided point estimate and two-sided 95% CI for the treatment effect, together with a one-sided p-value. Significance was determined if the one-sided p-value was less than 0.025. The analysis population for the haemoglobin and SF-36 Vitality Domain endpoints was the intent-to-treat population. […]
# [4] = system: non-dialysis patient with anaemia associated with chronic kidney disease; assay: hsCRP levels by baseline hsCRP quartile in 28 week placebo controlled clinical study; assay type: in vivo, human
# Procedure: as §1
# In addition to analysis of the intention to treat population, several sub-group analyses were pre-specified including subgroups with baseline hsCRP quartiles of <0.9 mg/L, 0.9 to <2.6 mg/L, 2.60 to <6.60 mg/L and ≥6.60 mg/L.
# The changes in hsCRP levels in each quartile are given below in Tables 5 to 8.
# [5] = system: non-dialysis patient with anaemia associated with chronic kidney disease; assay: CKD-AQ Tired/Low Energy/Weak Domain score in 28 week placebo controlled clinical study; assay type: in vivo, human; conditions: on treatment population
# Procedure: as §1, §2, §4, §5, §6
# A simple linear transformation was used to recalibrate the items to a 0-100 scale as outlined in Tables 11 and 12. […]
compound,measurement,setting,value
darbepoetin alfa,mean change in SF-36 Vitality domain,"[1]; versus 4.2±19 placebo, P=0.196",5.3±20
same,percentage of responders having a ≥5-point increase in SF-36 Vitality domain,"[1]; versus 49% placebo, nominal P=0.027",54%
"O=C(O)CNC(=O)C1C(=O)N(C2CCCCC2)C(=O)N(C2CCCCC2)C1=O [Daprodustat, N-((1,3-dicyclohexylhexahydro-2,4,6-trioxopyrimidin-5-yl)carbonyl)glycine]",SF-36 vitality domain scores for daprodustat and placebo,[2]; at week 12,not distinguishable
same,"adjusted difference in response rate (dapro-placebo), ≥6.0 point SF-36 Vitality increase",[2]; baseline to week 28,"0.13 (0.04, 0.22)"
same,Baseline SF-36 Vitality Sub-score Mean (SD),"[2]; baseline, intention to treat population, includes imputed values",50.74 (21.175)
same,Adjusted Mean Treatment Difference (dapro − placebo) in SF-36 Vitality change from baseline at week 28,[2]; intention to treat population,5.36
same,Adjusted mean SF-36 Vitality Change from Baseline at Week 28 (SE),[2]; intention to treat population,7.29 (1.121)
same,Adjusted mean SF-36 Vitality Change from Baseline at Week 28 (SE),"[2]; intention to treat population, listed as daprodustat",7.29
same,participants with a ≥6.0 point difference from baseline to week 28 in the SF-36 Vitality Sub-score,"[2]; responder rate, intention to treat population",58%
same,adjusted mean treatment difference (CI) in SF-36 Vitality,[2]; subgroup baseline hsCRP 0.9 to <2.6 mg/L,"1.09 (−4.86, 7.04)"
same,adjusted mean SF-36 Vitality Change,"[2]; subgroup baseline hsCRP 0.9 to <2.6 mg/L, week 28",4.98
same,adjusted mean treatment difference (CI) in SF-36 Vitality,[2]; subgroup baseline hsCRP 2.60 to <6.60 mg/L,"4.38 (−1.77, 10.53)"
same,adjusted mean SF-36 Vitality Change,"[2]; subgroup baseline hsCRP 2.60 to <6.60 mg/L, week 28",7.92
same,adjusted mean treatment difference (CI) in SF-36 Vitality,[2]; subgroup baseline hsCRP <0.9 mg/L,"10.0 (3.53, 16.47)"
same,adjusted mean SF-36 Vitality Change,"[2]; subgroup baseline hsCRP <0.9 mg/L, week 28",9.84
same,adjusted mean treatment difference (CI) in SF-36 Vitality,[2]; subgroup baseline hsCRP ≥6.60 mg/L,"7.71 (1.62, 13.80)"
same,adjusted mean treatment difference (CI) in SF-36 Vitality,"[2]; subgroup baseline hsCRP ≥6.60 mg/L, listed as daprodustat",7.71
same,adjusted mean SF-36 Vitality Change,"[2]; subgroup baseline hsCRP ≥6.60 mg/L, week 28",8.24
same,adjusted mean treatment difference in SF-36 Vitality domain subscore,[2]; subjects having baseline haemoglobin <9 g/dL,7.44
same,adjusted mean treatment difference in SF-36 Vitality,"[2]; subjects having baseline haemoglobin >11 g/dL, small number of subjects",−7.13
same,adjusted mean treatment difference in SF-36 Vitality domain subscore,[2]; subjects having baseline haemoglobin ≥9 to <10 g/dL,5.25
same,adjusted mean treatment difference in SF-36 Vitality domain subscore,[2]; subjects having baseline haemoglobin ≥10 to ≤11 g/dL,6.01
same,Week 28 SF-36 Vitality Sub-score Mean (SD),"[2]; week 28, intention to treat population, includes imputed values",58.40 (18.312)
same,haemoglobin concentration compared to placebo over the treatment period,[3]; one sided superiority p-value <0.0001,significantly increased haemoglobin concentration
same,adjusted mean treatment difference in haemoglobin concentration,[3]; subjects having baseline haemoglobin >11 g/dL,0.76 g/dL
same,adjusted mean treatment difference in haemoglobin concentration,[3]; subjects having baseline hsCRP ≥6.60 mg/L,1.25 g/dL
same,Geometric mean hsCRP,"[4]; baseline hsCRP 0.9-<2.60 mg/L, Baseline",1.46 mg/L
same,Geometric mean hsCRP,"[4]; baseline hsCRP 0.9-<2.60 mg/L, Day 1",1.46 mg/L
same,Geometric mean hsCRP,"[4]; baseline hsCRP 0.9-<2.60 mg/L, End of Treatment",2.55 mg/L
same,Geometric mean hsCRP,"[4]; baseline hsCRP 0.9-<2.60 mg/L, Week 28",2.55 mg/L
same,Geometric mean hsCRP,"[4]; baseline hsCRP 2.60-<6.60 mg/L, Baseline",3.93 mg/L
same,Geometric mean hsCRP,"[4]; baseline hsCRP 2.60-<6.60 mg/L, Day 1",3.93 mg/L
same,Geometric mean hsCRP,"[4]; baseline hsCRP 2.60-<6.60 mg/L, End of Treatment",3.83 mg/L
same,Geometric mean hsCRP,"[4]; baseline hsCRP 2.60-<6.60 mg/L, Week 28",3.85 mg/L
same,Geometric mean hsCRP,"[4]; baseline hsCRP <0.9 mg/L, Baseline",0.48 mg/L
same,Geometric mean hsCRP,"[4]; baseline hsCRP <0.9 mg/L, Day 1",0.48 mg/L
same,Geometric mean hsCRP,"[4]; baseline hsCRP <0.9 mg/L, End of Treatment",0.86 mg/L
same,Geometric mean hsCRP,"[4]; baseline hsCRP <0.9 mg/L, Week 28",0.85 mg/L
same,Geometric mean hsCRP,"[4]; baseline hsCRP ≥6.60 mg/L, Baseline",16.96 mg/L
same,Geometric mean hsCRP,"[4]; baseline hsCRP ≥6.60 mg/L, Day 1",16.79 mg/L
same,Geometric mean hsCRP,"[4]; baseline hsCRP ≥6.60 mg/L, End of Treatment",8.92 mg/L
same,Geometric mean hsCRP,"[4]; baseline hsCRP ≥6.60 mg/L, Week 28",9.04 mg/L
same,change in hsCRP levels,"[4]; subjects with high baseline hsCRP (≥6.60 mg/L), similar reductions in placebo group",large reductions in hsCRP levels
same,Adjusted Mean Treatment Difference (dapro − placebo) on CKD-AQ Tired/Low Energy/Weak Domain,[5]; baseline to week 28,5.91
same,Adjusted mean change from baseline to week 28 on CKD-AQ Tired/Low Energy/Weak Domain (SE),[5],8.72 (1.086)
same,Adjusted mean change from baseline to week 28 on CKD-AQ Tired/Low Energy/Weak Domain (SE),[5]; listed as daprodustat,8.72
